According to US11260047B2, “Formulations of AG10” (Eidos Therapeutics, Inc., priority 2018, dated 2022):

How the values were obtained:
Type in all cases: in vivo
[1] = Pharmacokinetics of AG10 in dogs, oral gavage, Study No. 1; conditions: both sexes, dog, plasma
Protocol: Pharmacokinetics of AG10 were determined when administered once daily to dogs via oral gavage at 20, 60, and 200 mg/kg for 3 days (Study No. 1). Each group consisted of two animals/sex/group. Blood samples were collected from each animal on Day 1 at pre-dose, 0.25, 0.5, 1, 2, 4, 8, 12 and 24 hours post-dose, Day 3 at pre-dose, 0.25, 0.5, 1, 2, 4, 8, 12, 24, 48 and 72 hr post-dose. Plasma samples were assayed for AG10 by LC-MS/MS. In general, no sex differences in AG10 mean Cmax and AUC0-24 values were observed; therefore, results for the 20 mg/kg dose group are presented as combined sex values in Table 1 below.

[2] = Pharmacokinetics of AG10 tablets and capsule given orally to male beagle dogs, Study No. 3; conditions: for Tmax / Cmax / AUC(0-t): male, beagle, dog, plasma, po; for Tmax: dogs, read-out: time to maximal concentration (T max); for Cmax / AUC(0-t): male dogs; for AUC(0-t): read-out: AUC0-24
Protocol: AG10 was administered orally to 4 male beagle dogs each as a 50 mg tablet, 200 mg tablet, and a 200 mg capsule (No. 3). Blood samples were collected at pre-dose and approximately 0.25, 0.5, 1, 2, 4, 8, 24, 48, 72 and 96 hours post-dose. Plasma samples were assayed for AG10 by LC-MS/MS.

[3] = Pharmacokinetics of AG10 after oral administration in beagle dogs, Study No. 2; conditions: both sexes, dog, plasma, 20 mg/kg; for Cmax / AUC(0-t): 20 mg/kg oral, sex MF; for AUC(0-t): read-out: AUC0-24; for Tmax: read-out: time to maximal concentration (T max)
Protocol: The pharmacokinetics of AG10 were also determined following oral administration in non-naïve male and female beagle dogs (Study No. 2). The study design included three treatment groups (n=2/sex/group). Groups 1 and 2 received 5 mg/kg and 20 mg/kg AG10 in 0.5% methylcellulose (MC) formulations respectively. Group 3 animals received 20 mg/kg AG10 in gelatin capsule form. Blood samples were collected at pre-dose and approximately 2, 4, 6, 8, 12, and 24 hours post-dose. Plasma samples were assayed for AG10 by LC-MS/MS. Plasma exposures (AUC0-24) of AG10 in dogs administered 20 mg/kg AG10 as a suspension in 0.5% methylcellulose were similar to those obtained in Study No. 1 (Table 1). Plasma exposures of AG10 were also similar in dogs which were administered the same dose of AG10 either as a suspension in 0.5% methylcellulose or as a gelatin capsule without any excipients.

[4] = gelatin capsule without excipients

`Cc1n[nH]c(C)c1CCCOc1cc(C(=O)O)ccc1F` [AG10, 3-(3-(3,5-dimethyl-1H-pyrazol-4-yl)propoxy)-4-fluorobenzoic acid] gave a Cmax ([1]; 0.5% MC formulation, 20 mg/kg oral gavage, sex MF combined) of 16100 ng/mL, an AUC(0-t) ([1]; 0.5% MC formulation, 20 mg/kg oral gavage, sex MF combined, read-out: AUC0-24) of 69100 ng·h/mL and a Tmax ([1]; po, 20 mg/kg, methylcellulose formulation, read-out: time to maximal concentration (T max)) of 0.44 ± 0.38 h. It also gave a Tmax ([2]; 50 mg, 50 mg tablets) of 0.5 h, a Cmax ([2]; 50 mg, tablet 50 mg oral) of 4660 ng/mL and an AUC(0-t) ([2]; 50 mg, tablet 50 mg oral) of 41500 ng·h/mL. It also gave a Tmax ([2]; 200 mg, 200 mg capsules with excipient) of 1.38 ± 0.75 h, a Tmax ([2]; 200 mg, 200 mg tablets) of 1 h and a Cmax ([2]; 200 mg, capsule 200 mg oral) of 9330 ng/mL. The AUC(0-t) ([2]; 200 mg, capsule 200 mg oral) was 65700 ng·h/mL, the Cmax ([2]; 200 mg, tablet 200 mg oral) was 13000 ng/mL and the AUC(0-t) ([2]; 200 mg, tablet 200 mg oral) was 88000 ng·h/mL. For the same molecule, the “Cmax, 200 mg tablets compared with 200 mg capsules” value ([2]; unpaired t-test, P value 0.0788) was “not significantly different”, the “AUC0-inf, 200 mg tablets compared with 200 mg capsules” value ([2]; unpaired t-test, P value 0.0995) was “not significantly different” and the Cmax ([3]; 0.5% MC formulation) was 8100 ng/mL. The AUC(0-t) ([3]; 0.5% MC formulation) was 71200 ng·h/mL, the Tmax ([3]; capsule formulated without excipients) was 2 h and the Cmax [3, 4] was 10300 ng/mL. The AUC(0-t) [3, 4] was 89300 ng·h/mL and the Tmax ([3]; methylcellulose formulation) was 2.5 ± 1 h.
